Entries after “also recorded” stand apart in the source; their conditions may differ.
Columns and labels:
[1] = Solubility (physical characteristics); format: physicochemical; details: in methanol
[2] = test system: mouse T lymphocytes (Splenic T-cells); test: T-Cell Proliferation Assay: inhibition of tritiated thymidine uptake in splenic T-cells stimulated with ionomycin + PMA; format: cell-based, mouse (C57Bl/6)
Procedure: The principle of this assay is to measure the proliferation of mouse T lymphocytes stimulated with the combination of ionomycin plus PMA.
Cells were pelleted by centrifugation at 1500 rpm for 8 minutes. Contaminating red cells were removed by treating the pellet with ammonium chloride lysing buffer (GIBCO) for 2 minutes at 4° C. Cold medium was added and cells were again centrifuged at 1500 rpm for 8 minutes. T lymphocytes were then isolated by separation of the cell suspension on nylon wool columns as follows: Nylon wool columns were prepared by packing approximately 4 grams of washed and dried nylon wool into 20 ml plastic syringes. The columns were sterilized by autoclaving at 250° F. for 30 minutes. Nylon wool columns were wetted with warm (37° C.) culture medium and rinsed with the same medium. Washed spleen cells resuspended in warm medium were slowly applied to the nylon wool. The columns were then incubated in an upright position at 37° C. for 1 hour. Non-adherent T lymphocytes were eluted from the columns with warm culture medium and the cell suspensions were spun as above.
The cell suspension was immediately distributed into 96 well flat-bottom microculture plates (Costar) at 200 μl/well. […] The proliferation of T lymphocytes was assessed by measurement of tritiated thymidine incorporation. After 44 hours of culturing, the cells were pulse-labelled with 2 μCi/well of tritiated thymidine (NEN, Cambridge, Mass.). After another 4 hours of incubation, cultures were harvested on glass fiber filters using a multiple sample harvester. Radioactivity of filter discs corresponding to individual wells was measured by standard liquid scintillation counting methods (Betacounter). Mean counts per minute of replicate wells were calculated and the results expressed as percent inhibition of tritiated thymidine uptake (proliferation) as follows: [formula]

[3] = EPO Publication No. 0184162; cited from earlier work

Row | Solubility [1] | SMILES | reversal of inhibition of T-cell proliferation by addition of IL2 ([2]; 50 units/ml recombinant IL2 at the initiation of culture) | FK-506 immunosuppressant activity / immunosuppressive activity in T-cell proliferation assay ([2]; ionomycin plus PMA, result in words) | effectiveness relative to cyclosporin (reputed) [3] [times] | inhibition at 0.01 µg/mL ([2]; Mus musculus, T-cell, 48 h, read-out: inhibition (Standard)) [%]
1 | Solubility in methanol | CC[C@@H]1C=C2COC1(O)C[C@H](O)[C@@H](C)[C@@H](/C(C)=C/[C@@H]1CC[C@@H](O)[C@H](OC)C1)OC(=O)[C@@H]1CCCCN1C(=O)C(=O)[C@]1(O)O[C@H]([C@@H](OC)C[C@@H](C)C2)[C@@H](OC)C[C@H]1C [Compound I] | reversed | positive inhibition of T-cell activation; also recorded: positive immunosuppressive activity |  | 
2 |  | C=CC[C@@H]1/C=C(\C)C[C@H](C)C[C@H](OC)[C@H]2O[C@@](O)(C(=O)C(=O)N3CCCC[C@H]3C(=O)O[C@H](/C(C)=C/[C@@H]3CC[C@@H](O)[C@H](OC)C3)[C@H](C)[C@@H](O)CC1=O)[C@H](C)C[C@@H]2OC [FR900506, reference compound] |  |  | 100 | 99
